Reference: ChEMBL document CHEMBL5344421, “Chemical Analysis and Antidiabetic Potential of a Decoction from Stevia serrata Roots” (J Nat Prod, 2024)
Activity calls are given as the source filed them. The rule behind the calls is not given here.

Legend:
Mus musculus [1] = experiment: Hypoglycemic effect in normoglycemic mouse assessed as decrease in blood glucose level at 5 to 50 mg/kg, po measured upto 5 hrs after administration; assay type: functional, organism-based; conditions: dose 5-50 mg/kg
Mus musculus [2] = experiment: Antihyperglycemic activity in normoglycemic mouse assessed as decrease in at 50 mg/kg, po measured upto 120 min after administration by oral glucose tolerance test; assay type: functional, organism-based
Mus musculus [3] = experiment: Antihyperglycemic activity in STZ-hyperglycemic mouse assessed as decrease in at 50 mg/kg, po measured upto 120 min after administration by oral glucose tolerance test; assay type: functional, organism-based
Mus musculus [4] = experiment: Antihyperglycemic activity in STZ-induced hyperglycemic CD1 mouse model assessed as reduction in blood glucose AUC at 50 mg/kg, ip measured upto 120 min intraperitoneal by insulin tolerance test; assay type: functional, organism-based
[5] = molecular target: T1, Tyrosine-protein phosphatase non-receptor type 1 (Homo sapiens, UniProt P18031); experiment: Inhibition of Protein tyrosine phosphatase 1B (unknown origin) activity by spectrophotocolorimetric analysis
T1 sequence (P18031 whole entry): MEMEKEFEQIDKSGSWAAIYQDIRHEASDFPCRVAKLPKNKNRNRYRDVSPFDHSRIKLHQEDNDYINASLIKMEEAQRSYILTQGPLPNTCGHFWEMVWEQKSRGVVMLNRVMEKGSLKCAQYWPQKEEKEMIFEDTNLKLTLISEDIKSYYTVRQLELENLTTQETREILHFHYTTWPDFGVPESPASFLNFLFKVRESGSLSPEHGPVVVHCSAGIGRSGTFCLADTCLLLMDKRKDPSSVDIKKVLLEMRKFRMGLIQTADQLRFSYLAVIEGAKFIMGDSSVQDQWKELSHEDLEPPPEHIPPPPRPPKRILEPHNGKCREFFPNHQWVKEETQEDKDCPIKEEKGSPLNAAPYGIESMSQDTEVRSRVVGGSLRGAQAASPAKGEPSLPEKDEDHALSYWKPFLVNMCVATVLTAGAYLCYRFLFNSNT

Sus scrofa = species: Sus scrofa; experiment: (§1) Inhibition of porcine pancreatic alpha-amylase measured after 40 mins by spectrophotocolorimetric enzymatic assay
[6] = molecular target: T2, Pancreatic triacylglycerol lipase (Sus scrofa) (UniProt P00591); experiment: Inhibition of porcine pancreatic lipase measured after 40 mins by spectrophotocolorimetric enzymatic assay
T2 sequence (whole entry): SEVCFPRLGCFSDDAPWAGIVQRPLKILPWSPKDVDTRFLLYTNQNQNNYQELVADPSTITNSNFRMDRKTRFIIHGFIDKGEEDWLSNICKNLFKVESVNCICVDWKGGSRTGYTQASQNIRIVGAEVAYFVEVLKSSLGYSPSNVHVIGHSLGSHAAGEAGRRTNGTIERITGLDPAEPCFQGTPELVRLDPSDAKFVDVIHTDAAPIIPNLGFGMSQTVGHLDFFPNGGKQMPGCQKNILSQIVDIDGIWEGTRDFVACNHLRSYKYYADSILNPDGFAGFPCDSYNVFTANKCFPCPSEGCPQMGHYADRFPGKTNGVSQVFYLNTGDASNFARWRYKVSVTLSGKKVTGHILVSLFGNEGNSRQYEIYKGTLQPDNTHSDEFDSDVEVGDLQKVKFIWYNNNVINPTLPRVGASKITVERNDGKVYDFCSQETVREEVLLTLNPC

Mus musculus [7] = experiment: Antihyperglycemic activity in STZ-hyperglycemic mouse assessed as decrease in blood glucose level at 150 mg/kg, po measured upto 5 hrs after administration; assay type: functional, organism-based
[8] = as §1; set-up: species or system Sus scrofa

C=C1C[C@@]23CC[C@H]4[C@@](C)(CCC[C@@]4(C)C(=O)O[C@@H]4O[C@H](CO)[C@@H](O[C@@H]5OC[C@H](O)[C@H](O)[C@H]5O)[C@H](OC(C)=O)[C@H]4OC(C)=O)[C@@H]2[C@@H](O)[C@@H]1C(=O)C3
Activity (Mus musculus [1]): Active
Activity (Mus musculus [2]): Active
Activity (Mus musculus [3]): Active
Activity (Mus musculus [4]): Active
IC50 [5]: 527 µM
inhibition (Sus scrofa): inactive
inhibition [6]: inactive
Activity (Mus musculus [7]): Active

CC(=O)O[C@@H]1[C@@H](OC(C)=O)[C@H](OC(=O)[C@]2(C)CCC[C@@]3(C)[C@@H]4[C@@H](O)C[C@@H]5C[C@@]4(CC[C@@H]32)C[C@@]5(O)CO)O[C@H](CO)[C@H]1O[C@@H]1OC[C@H](O)[C@H](O)[C@H]1O
IC50 [5]: 31.8 µM
inhibition (Sus scrofa): inactive
inhibition [6]: inactive

CC(=O)O[C@@H]1[C@@H](OC(C)=O)[C@H](OC(=O)[C@]2(C)CCC[C@@]3(C)[C@@H]4[C@@H](O)[C@@H]5C(=O)C[C@]4(C=C5C)CC[C@@H]32)O[C@H](CO)[C@H]1O[C@@H]1OC[C@H](O)[C@H](O)[C@H]1O
IC50 [5]: 532 µM
inhibition (Sus scrofa): inactive
inhibition [6]: inactive

CC(=O)O[C@@H]1CC[C@]2(C)[C@H]3CCC4=C([C@@H](C)CCC=C(C)C)CC[C@@]4(C)[C@]3(C)CC[C@H]2C1(C)C
IC50 [5]: 1180 µM
inhibition (Sus scrofa): inactive
inhibition [6]: inactive

C=C1[C@@H]2CC[C@H]3[C@]4(C)CCC[C@@](C)(C(=O)O[C@@H]5O[C@H](CO)[C@@H](O[C@@H]6OC[C@H](O)[C@H](O)[C@H]6O)[C@H](OC(C)=O)[C@H]5OC(C)=O)[C@H]4CC[C@]3(C2)[C@H]1O[C@@H]1O[C@H](CO)[C@@H](O)[C@H](O)[C@H]1O
IC50 [5]: 928 µM
inhibition (Sus scrofa): inactive
inhibition [6]: inactive

C[C@H]1O[C@H](O[C@H]2[C@H](O)[C@@H](O)[C@@H](O[C@H]3[C@H](O)[C@@H](O)C(O)O[C@@H]3CO)O[C@@H]2CO)[C@H](O)[C@@H](O)[C@@H]1N[C@H]1C=C(CO)[C@@H](O)[C@H](O)[C@H]1O (stereo partly specified) [ACARBOSE]
IC50 [8]: 3.2 µM
